Tests used:
[1] = tested on: Mus musculus; experiment: Analgesic activity in Swiss albino mouse assessed as inhibition of acetic acid-induced writhing at 20 mg/kg, po administered 30 mins prior to acetic acid treatment and measured for 20 mins; assay type: functional; set-up: scale not given: the % may be the effect or the level left; conditions: time 50 min
[2] = Ulcerogenic activity in Wistar rat assessed as incidence of gastric ulceration by measuring severity index at 60 mg/kg, po measured after 17 hrs by microscopic analysis; assay type: toxicity, organism-based; conditions: in vivo
[3] = Acute toxicity in Wistar rat assessed as survival at 100 mg/kg, po administered for 7 days and observed for 14 days; assay type: organism-based; conditions: in vivo, 336 h, time 14 day
[4] = Acute toxicity in Wistar rat assessed as behavioral changes at 100 mg/kg, po administered for 7 days and observed for 14 days; assay type: organism-based; conditions: in vivo, 336 h, time 14 day
[5] = Acute toxicity in Swiss albino mouse assessed as survival at 100 mg/kg, po administered for 7 days and observed for 14 days; assay type: organism-based; conditions: in vivo, 336 h, time 14 day
[6] = tested on: Rattus norvegicus; experiment: Anti-inflammatory activity in Wistar rat assessed as inhibition of carrageenan-induced paw edema at 20 mg/kg, po administered 1 hr prior to carrageenan stimulation and measured after 3 hrs by plethysmometric method relative to control; assay type: functional; set-up: scale not given: the % may be the effect or the level left; conditions: time 4 hrs
[7] = Acute toxicity in Swiss albino mouse assessed as behavioral changes at 100 mg/kg, po administered for 7 days and observed for 14 days; assay type: organism-based; conditions: in vivo, 336 h, time 14 day
[8] = molecular target: T1, Prostaglandin G/H synthase 2 (Homo sapiens, UniProt P35354); experiment: Inhibition of COX-2 (unknown origin) assessed as reduction in PGH2 formation using arachidonic acid as substrate preincubated for 5 mins followed by substrate addition and measured after 2 mins by enzyme immunoassay
T1 sequence (P35354 whole entry): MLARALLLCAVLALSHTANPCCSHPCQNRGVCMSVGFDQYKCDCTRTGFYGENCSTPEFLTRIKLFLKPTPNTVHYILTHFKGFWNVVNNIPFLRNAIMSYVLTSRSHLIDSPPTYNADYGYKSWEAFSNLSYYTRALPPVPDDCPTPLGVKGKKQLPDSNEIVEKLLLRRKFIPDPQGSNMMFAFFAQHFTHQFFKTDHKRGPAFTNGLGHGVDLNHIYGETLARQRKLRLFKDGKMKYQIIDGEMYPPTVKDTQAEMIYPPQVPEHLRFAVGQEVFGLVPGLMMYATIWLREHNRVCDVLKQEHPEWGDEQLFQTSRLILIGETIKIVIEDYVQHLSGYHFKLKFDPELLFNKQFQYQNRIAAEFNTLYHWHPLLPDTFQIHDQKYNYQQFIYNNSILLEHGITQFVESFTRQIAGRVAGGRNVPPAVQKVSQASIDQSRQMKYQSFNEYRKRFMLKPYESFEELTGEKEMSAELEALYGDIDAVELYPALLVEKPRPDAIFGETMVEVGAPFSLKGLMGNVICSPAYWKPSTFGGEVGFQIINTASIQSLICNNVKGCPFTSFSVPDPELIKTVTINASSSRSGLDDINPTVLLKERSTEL

[9] = Acute toxicity in Wistar rat assessed as survival at 200 mg/kg, po administered for 7 days and observed for 14 days; assay type: organism-based; conditions: in vivo, 336 h, time 14 day
[10] = molecular target: Prostaglandin G/H synthase 1 (Homo sapiens, UniProt P23219); experiment: Inhibition of COX-1 (unknown origin) assessed as reduction in PGH2 formation using arachidonic acid as substrate preincubated for 5 mins followed by substrate addition and measured after 2 mins by enzyme immunoassay
Sequence of Prostaglandin G/H synthase 1 (P23219 whole entry): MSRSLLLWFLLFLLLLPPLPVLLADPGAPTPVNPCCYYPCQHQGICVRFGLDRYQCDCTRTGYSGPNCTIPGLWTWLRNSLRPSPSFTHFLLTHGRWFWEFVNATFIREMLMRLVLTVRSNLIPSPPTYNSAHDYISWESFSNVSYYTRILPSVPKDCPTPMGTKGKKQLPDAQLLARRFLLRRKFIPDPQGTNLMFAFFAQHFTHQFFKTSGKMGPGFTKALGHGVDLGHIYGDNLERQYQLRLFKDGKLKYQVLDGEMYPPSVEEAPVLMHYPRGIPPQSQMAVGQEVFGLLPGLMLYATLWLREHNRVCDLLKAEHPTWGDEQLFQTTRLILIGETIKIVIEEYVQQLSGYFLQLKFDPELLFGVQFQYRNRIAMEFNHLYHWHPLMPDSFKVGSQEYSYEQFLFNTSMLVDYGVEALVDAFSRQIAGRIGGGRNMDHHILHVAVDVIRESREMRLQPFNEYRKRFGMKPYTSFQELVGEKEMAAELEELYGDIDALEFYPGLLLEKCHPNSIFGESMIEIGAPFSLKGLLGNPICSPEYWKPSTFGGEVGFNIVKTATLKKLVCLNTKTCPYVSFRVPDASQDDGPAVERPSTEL

[11] = Acute toxicity in Swiss albino mouse assessed as survival at 200 mg/kg, po administered for 7 days and observed for 14 days; assay type: organism-based; conditions: in vivo, 336 h, time 14 day
[12] = Acute toxicity in Swiss albino mouse assessed as behavioral changes at 200 mg/kg, po administered for 7 days and observed for 14 days; assay type: organism-based; conditions: in vivo, 336 h, time 14 day
[13] = Acute toxicity in Wistar rat assessed as behavioral changes at 200 mg/kg, po administered for 7 days and observed for 14 days; assay type: organism-based; conditions: in vivo, 336 h, time 14 day
[14] = tested on: Rattus norvegicus; experiment: Anti-inflammatory activity in Wistar rat assessed as inhibition of carrageenan-induced paw edema at 20 mg/kg, po administered 1 hr prior to carrageenan stimulation and measured after 4 hrs by plethysmometric method relative to control; assay type: functional; set-up: scale not given: the % may be the effect or the level left; conditions: time 5 hrs

Row | SMILES | Activity [1] [%] | Activity_index [2] | Activity [3] | Activity [4] | Activity [5] | Activity [6] [%] | Activity [7] | IC50 [8] [µM] | Activity [9] | IC50 [10] [µM] | Activity [11] | Activity [12] | Activity [13] | Activity [14] [%]
1 | O=C(/C=C/c1ccc(O)c(O)c1)NNC(=O)COc1cccc2cccnc12 | 57.3 | 0.53 | Non-Toxic | Non-Toxic | Non-Toxic | 66.61 | Non-Toxic | 4.9 | Non-Toxic | 126 | Non-Toxic | Non-Toxic | Non-Toxic | 61.47
2 | Cc1ccc(OCC(=O)NNC(=O)/C=C/c2ccc(O)c(O)c2)c(C)c1 | 45.21 | 0.26 | Non-Toxic | Non-Toxic | Non-Toxic | 67.18 | Non-Toxic | 2.1 | Non-Toxic | 107 | Non-Toxic | Non-Toxic | Non-Toxic | 64.45
3 | O=C(/C=C/c1ccc(O)c(O)c1)NNC(=O)COc1cccnc1 | 53.41 | 0.4 | Non-Toxic | Non-Toxic | Non-Toxic | 63.96 | Non-Toxic | 5 | Non-Toxic | 182 | Non-Toxic | Non-Toxic | Non-Toxic | 60.82
4 | O=C(/C=C/c1ccc(O)c(O)c1)NNC(=O)COc1cccc2ccccc12 | 50.7 | 0.46 | Non-Toxic | Non-Toxic | Non-Toxic | 49.96 | Non-Toxic |  | Non-Toxic |  | Non-Toxic | Non-Toxic | Non-Toxic | 44.45
5 | Cc1ccc(OCC(=O)NNC(=O)/C=C/c2ccc(O)c(O)c2)cc1 | 64.68 | 0.38 | Non-Toxic | Non-Toxic | Non-Toxic | 58.71 | Non-Toxic |  | Non-Toxic |  | Non-Toxic | Non-Toxic | Non-Toxic | 55.53
6 | Cc1ccc2cccc(OCC(=O)NNC(=O)/C=C/c3ccc(O)c(O)c3)c2n1 | 49.02 | 0.57 | Non-Toxic | Non-Toxic | Non-Toxic | 57.19 | Non-Toxic |  | Non-Toxic |  | Non-Toxic | Non-Toxic | Non-Toxic | 53.15
7 | Cc1ccc(-c2cc(C(F)(F)F)nn2-c2ccc(S(N)(=O)=O)cc2)cc1 [CELECOXIB] | 73.53 |  |  |  |  | 78 |  |  |  |  |  |  |  | 74.56
8 | O=C(/C=C/c1ccc(O)c(O)c1)NNC(=O)COc1ccc2ccccc2c1 | 65.1 | 0.57 | Non-Toxic | Non-Toxic | Non-Toxic | 51.61 | Non-Toxic |  | Non-Toxic |  | Non-Toxic | Non-Toxic | Non-Toxic | 48.7
9 | O=C(/C=C/c1ccc(O)c(O)c1)NNC(=O)COc1ccc(Br)cc1 | 71.35 | 0.78 | Non-Toxic | Non-Toxic | Non-Toxic | 74.9 | Non-Toxic | 3.4 | Non-Toxic | 233 | Non-Toxic | Non-Toxic | Non-Toxic | 71.15
10 | Cc1ccccc1OCC(=O)NNC(=O)/C=C/c1ccc(O)c(O)c1 | 49.18 | 0.58 | Non-Toxic | Non-Toxic | Non-Toxic | 54.96 | Non-Toxic |  | Non-Toxic |  | Non-Toxic | Non-Toxic | Non-Toxic | 49.83
11 | O=C(/C=C/c1ccc(O)c(O)c1)NNC(=O)COc1ccc(Cl)cc1 | 67.85 | 0.76 | Non-Toxic | Non-Toxic | Non-Toxic | 75.17 | Non-Toxic | 3.17 | Non-Toxic | 214 | Non-Toxic | Non-Toxic | Non-Toxic | 72.29
